Experimental data published in patent US20250073249A1, “STEROID COMPOUND, AND PREPARATION METHOD THEREFOR AND USE THEREOF” (SHANGHAI INSTITUTE OF MATERIA MEDICA, CHINESE ACADEMY OF …, priority 2022, published 2025).
Substitutions are numbered along the chain they refer to.

Tests used:
Assay type in all cases: cell-based
AR(F876L) = target: T1, AR(F876L) (Homo sapiens, UniProt P10275, F877L); assay: Mutant AR antagonistic activity test, F876L (reporter gene in HEK293 cells); settings: DHT 10 nM, 24 hours, read-out: F876L IC50(nM) 2nd gen AR antagonist resistant mutation
T1 construct: expressed in transfected cells; host or cells: HEK293
T1 sequence (P10275 1-920 F877L): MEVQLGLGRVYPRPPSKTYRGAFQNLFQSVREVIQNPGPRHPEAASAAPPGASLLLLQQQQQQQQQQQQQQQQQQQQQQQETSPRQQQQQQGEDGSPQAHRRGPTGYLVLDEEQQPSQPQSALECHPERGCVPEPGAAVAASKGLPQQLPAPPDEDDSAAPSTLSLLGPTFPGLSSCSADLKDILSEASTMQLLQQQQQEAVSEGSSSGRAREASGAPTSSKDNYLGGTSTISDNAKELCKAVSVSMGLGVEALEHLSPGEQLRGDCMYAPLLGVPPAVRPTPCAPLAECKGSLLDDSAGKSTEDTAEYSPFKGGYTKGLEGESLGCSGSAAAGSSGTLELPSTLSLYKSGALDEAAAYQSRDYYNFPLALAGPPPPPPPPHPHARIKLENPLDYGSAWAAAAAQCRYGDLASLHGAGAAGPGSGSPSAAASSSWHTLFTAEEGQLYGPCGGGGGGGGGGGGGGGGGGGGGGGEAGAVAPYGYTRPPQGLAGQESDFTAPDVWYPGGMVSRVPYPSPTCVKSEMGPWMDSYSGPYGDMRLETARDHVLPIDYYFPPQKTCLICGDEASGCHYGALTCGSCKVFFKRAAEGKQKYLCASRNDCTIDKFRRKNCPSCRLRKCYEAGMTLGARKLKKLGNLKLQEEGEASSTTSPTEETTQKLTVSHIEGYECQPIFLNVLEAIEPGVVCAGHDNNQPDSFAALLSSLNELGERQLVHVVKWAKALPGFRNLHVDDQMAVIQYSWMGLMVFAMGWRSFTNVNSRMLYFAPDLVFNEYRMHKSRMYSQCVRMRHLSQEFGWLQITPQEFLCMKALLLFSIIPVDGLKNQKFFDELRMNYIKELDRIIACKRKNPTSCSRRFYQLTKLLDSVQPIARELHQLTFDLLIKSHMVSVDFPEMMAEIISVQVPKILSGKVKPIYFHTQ
Experimental: (§1) HEK293 cells were cultured in DMEM supplemented with 10% FBS and 1% GlutaMax at 37° C. with 5% CO2. The day before transfection, the medium was changed to DMEM containing 10% charcoal-stripped FBS and 1% GlutaMax. […] The cell suspension was diluted with cell seeding solution, and the transfection reagent was added to achieve 500,000 cells/mL. Subsequently, 90 μL of cell suspension was seeded into each well of the assay plate. The next day, compounds were prepared: starting from 8 mM, 3-fold serial dilutions were performed in DMSO for a total of 8 points, then 500 nL was transferred to the compound plate using Echo. The compounds were then diluted with 40 μL of medium to 10× final concentration, and 10 μL was transferred to the cell plate and incubated at 37° C. for 30 minutes. Subsequently, 10 nL of DHT at a final concentration of 10 nM was transferred to each well of the assay plate using TECAN. After 24 hours of incubation, 100 μL of Steady-Glo was added to the assay plate and read on an Envision reader. Data were determined and analyzed using GraphPad Prism.

LNCaP cells = assay: In vitro LNCaP cell proliferation inhibition test (CellTiter-Glo); settings: for Maximum Inhibition (%) / IC50: 6 days; for IC50: Homo sapiens, read-out: Anti-proliferative activity IC50; for Anti-proliferative activity, fold improvement compared to abiraterone: ratio to abiraterone IC50
Experimental: The cells were then digested with trypsin and counted using an automated cell counter to determine cell density. The cell suspension was diluted to the desired density in growth medium. Subsequently, 100 μL of the cell suspension was seeded into 96-well plates and incubated at 37° C. with 5% CO2 for 24 hours. 10 μL of drug solution (including 3-fold serial dilutions of compounds or DMSO) was added to each well, and the plates were incubated at 37° C. with 5% CO2 for 6 days. Prior to measurement, the assay plates were equilibrated to room temperature. 40 μL of CellTiter-Glo® reagent was added to each well. The plates were mixed on an orbital shaker for 2 minutes to induce cell lysis. After incubation at room temperature for 60 minutes to stabilize the luminescence signal, the plates were read on an Envision plate reader.

AR(T877A) = target: T2, AR(T877A) (Homo sapiens, UniProt P10275, T878A); assay: Mutant AR antagonistic activity test, T877A (reporter gene in HEK293 cells); settings: for IC50: HEK293 cells, DHT 10 nM, 24 hours, read-out: T877A IC50(nM) 1st gen AR antagonist resistant mutation
T2 construct: expressed in transfected cells; host or cells: HEK293
T2 sequence (P10275 1-920 T878A): T1 sequence (P10275 1-920 F877L) with L877F, T878A
Experimental: as §1

Row | Structure (SMILES) | IC50 (AR(F876L)) | Maximum Inhibition (%) (LNCaP cells) | IC50 (LNCaP cells) | Anti-proliferative activity, fold improvement compared to abiraterone (LNCaP cells) | IC50 (AR(T877A)) | Anti-tumor activity and efficacy compared to enzalutamide (LNCaP cells; in words) | T877A antagonistic activity, fold improvement compared to enzalutamide (AR(T877A); ratio to enzalutamide IC50)
1 | Cc1cn(C2=CCC3C4CC=C5C[C@@H](NC(=O)c6ccncc6)CC[C@]5(C)C4CC[C@]23C)cn1 (stereo partly drawn) [Compound 14, N-((3S,10R,13S)-10,13-dimethyl-17-(4-methyl-1H-imidazol-1-yl)-2,3,4,7,8,9,10,11,12,13,14,15-dodecahydro-1H-cyclopenta[a]phenanthren-3-yl)isonicotinamide] | 268 nM | 99.35% | 205 nM | 15.8 fold | 209 nM |  | 
2 | Cc1cn(C2=CCC3C4CC=C5C[C@@H](NC(=O)c6ccc(F)cc6)CC[C@]5(C)C4CC[C@]23C)cn1 (stereo partly drawn) [Compound 33, N-((3S,10R,13S)-17-(4-methyl-1H-imidazol-1-yl)-10,13-dimethyl-2,3,4,7,8,9,10,11,12,13,14,15-dodecahydro-1H-cyclopenta[a]phenanthren-3-yl)-4-fluorobenzamide] | 390 nM | 102.9% | 478 nM |  | 79.8 nM | comparable anti-tumor activity but significantly superior anti-tumor efficacy compared to enzalutamide | 1.4 fold
3 | Cc1cn(C2=CCC3C4CC=C5C[C@@H](NC(=O)c6ccc(S(C)(=O)=O)cc6)CC[C@]5(C)C4CC[C@]23C)cn1 (stereo partly drawn) [Compound 35, N-((3S,10R,13S)-17-(4-methyl-1H-imidazol-1-yl)-10,13-dimethyl-2,3,4,7,8,9,10,11,12,13,14,15-dodecahydro-1H-cyclopenta[a]phenanthren-3-yl)-4-(methylsulfonyl)benzamide] | 326 nM | 96.85% | 527 nM |  | 462 nM |  | 
4 | Cc1cn(C2=CCC3C4CC=C5C[C@@H](NC(=O)c6ccc(F)cc6F)CC[C@]5(C)C4CC[C@]23C)cn1 (stereo partly drawn) [Compound 37, N-((3S,10R,13S)-17-(4-methyl-1H-imidazol-1-yl)-10,13-dimethyl-2,3,4,7,8,9,10,11,12,13,14,15-dodecahydro-1H-cyclopenta[a]phenanthren-3-yl)-2,4-difluorobenzamide] | 273 nM | 95.85% | 327 nM | 8.6 fold | 281 nM |  | 
